Laboratory results from patent publication US4791215A, “Derivatives of glutamic acid and aspartic acid” (priority 1984, dated 1988).

How the values were obtained:
morphine analgesia = assay: Increase in analgesia of morphine, Tail Flick Test (Experiment 1); assay type: in vivo, rats; details: for percentage variation of latency of pain sensation / M (10-90) ± SE, mean percentage variation of latency: compound 10 mg/kg i.p. + morphine 2 mg/kg; for M (10-90) ± SE, mean percentage variation of latency: mean 10-90 min; for Power ratio with respect to morphine alone: rat, in vivo
Outline: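 Tail-flick latency to 75 °C radiant heat, capped at 8 s, measured in male non-fasted rats weighing 150-200 g. Percentage change per animal derived from pre-treatment baseline versus post-drug readings at 10-90 min (10, 20, 30, 45, 60, 90 min).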

[1] = test system: CCK-8 induced contraction of guinea pig gall bladder; assay: Anti-CCK activity on gall bladder strips in vitro; details: CCK-8 10 ng/ml
Outline: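 CCK-8 at 10 ng/ml drove isometric contraction of guinea pig gall bladder strips held at 32 °C in oxygenated Krebs (O2/CO2 95:5). Antagonism was measured at graded compound concentrations and reported as ED50, in μg/ml, for 50% inhibition of the contraction.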

[2] = test system: intestinal transit of carbon; assay: Anti-spastic activity, vegetable carbon intestinal transit test; assay type: in vivo, mice; details: Mus musculus, ip; read-out: antispastic activity ED50 (dose reducing intestinal transit of carbon by 50%)
Excerpt: The anti-spastic activity which the present compounds exert on the entire digestive system is also notable. Measured in mice with the vegetable carbon test (rate of transit through the stomach and the intestine), this activity is illustrated in the following table.
claimed administered intraperitoneally in mice. Values
expressed as the ED 50 in mg/kg, that is the dose which
reduces the intestinal transit of carbon by 50%

[3] = Body weight on daily oral dosing; assay type: in vivo, rats
Experimental: (§1) In order to check the hypothesis that the anti-CCK activity shown by most of the compounds in question may be used to advantage in the treatment of anorexia in man or as an appetite stimulant for farm animals, the following experiment was carried out:
(§2) Male rats having a weight of about 160 g, divided into groups of 10 animals, were used. […]
(§3) The drug, in the form of the sodium salt, was dissolved in water and administered in a volume of 10 ml of H2 O/kg while the control group received an equal volume of the solvent alone.
(§4) The following tables give the average values of the food consumption and the average weight of each group of animals, calculated weekly as well as the Student's t value calculated from the various treated groups and the group of control animals.

[4] = Food consumption on daily oral dosing; assay type: in vivo, rats
Experimental: as §1, §2, §3, §4

CCCN(CCC)C(=O)C(CCC(=O)O)NC(=O)c1cccc(C#N)c1 (stereo not shown) [Compound C-20]
percentage variation of latency of pain sensation (morphine analgesia; 10'): 53.8%
percentage variation of latency of pain sensation (morphine analgesia; 20'): 85.7 ± 10.0%
percentage variation of latency of pain sensation (morphine analgesia; 30'): 92.0 ± 8.0%
percentage variation of latency of pain sensation (morphine analgesia; 45'): 99.1 ± 1.0%
percentage variation of latency of pain sensation (morphine analgesia; 60'): 91.2 ± 9.0%
percentage variation of latency of pain sensation (morphine analgesia; 90'): 51.2%
M (10-90) ± SE, mean percentage variation of latency (morphine analgesia): 78.8 ± 21.0%
Power ratio with respect to morphine alone (morphine analgesia): 2.64
ED50 (concentration antagonising 50% of contracting effect of CCK-8) [1]: > 200 µg/mL
ED50 [2]: 77.5 mg/kg

CCCN(CCC)C(=O)C(CCC(=O)O)NC(=O)c1ccc(C(C)C)cc1 (stereo not shown) [Compound C-36]
percentage variation of latency of pain sensation (morphine analgesia; 10'): 8.6%
percentage variation of latency of pain sensation (morphine analgesia; 20'): 100.0 ± 0%
percentage variation of latency of pain sensation (morphine analgesia; 30'): 96.9 ± 3%
percentage variation of latency of pain sensation (morphine analgesia; 45'): 90.0 ± 10%
percentage variation of latency of pain sensation (morphine analgesia; 60'): 96.9 ± 3%
percentage variation of latency of pain sensation (morphine analgesia; 90'): 92.4 ± 25%
M (10-90) ± SE, mean percentage variation of latency (morphine analgesia): 80.8 ± 36%
Power ratio with respect to morphine alone (morphine analgesia): 2.71
ED50 (concentration antagonising 50% of contracting effect of CCK-8) [1]: 13.4 µg/mL
ED50 [2]: 208 mg/kg

CCCCN(CCCC)C(=O)CCC(NC(=O)c1ccc(Cl)c(Cl)c1)C(=O)O [Compound D-2]
percentage variation of latency of pain sensation (morphine analgesia; 10'): 85.6 ± 14.0%
percentage variation of latency of pain sensation (morphine analgesia; 20'): 98.1 ± 2.0%
percentage variation of latency of pain sensation (morphine analgesia; 30'): 95.9 ± 4.0%
percentage variation of latency of pain sensation (morphine analgesia; 45'): 96.6 ± 3.0%
percentage variation of latency of pain sensation (morphine analgesia; 60'): 95.5 ± 3.0%
percentage variation of latency of pain sensation (morphine analgesia; 90'): 87.5 ± 6.0%
M (10-90) ± SE, mean percentage variation of latency (morphine analgesia): 93.2 ± 5.3%
Power ratio with respect to morphine alone (morphine analgesia): 3.12
ED50 (concentration antagonising 50% of contracting effect of CCK-8) [1]: > 200 µg/mL
ED50 [2]: 50.7 mg/kg

CCCN(CCC)C(=O)C(CCC(=O)O)NC(=O)c1ccc(C)c(C)c1 (stereo not shown) [Compound C-30]
body weight ([3]; 3 mg/kg os, time 0): 270.8 ± 8.3 g
body weight ([3]; 3 mg/kg os, week 1): 310.2 ± 7.01 g
body weight ([3]; 3 mg/kg os, week 2): 380.5 ± 6.5 g
body weight ([3]; 3 mg/kg os, week 3): 409.7 ± 2.99 g
body weight ([3]; 3 mg/kg os, week 4): 437.3 ± 55 g
body weight ([3]; 10 mg/kg os, time 0): 271.4 ± 9.3 g
body weight ([3]; 10 mg/kg os, week 1): 332.9 ± 5.7 g
body weight ([3]; 10 mg/kg os, week 2): 383.2 ± 6.5 g
body weight ([3]; 10 mg/kg os, week 3): 439.1 ± 4.3 g
body weight ([3]; 10 mg/kg os, week 4): 470.5 ± 6.5 g
body weight ([3]; 30 mg/kg os, time 0): 267.9 ± 7.7 g
body weight ([3]; 30 mg/kg os, week 1): 315.7 ± 7.4 g
body weight ([3]; 30 mg/kg os, week 2): 371.9 ± 7.9 g
body weight ([3]; 30 mg/kg os, week 3): 437.1 ± 5.2 g
body weight ([3]; 30 mg/kg os, week 4): 488.1 ± 6.4 g
percentage variation of latency of pain sensation (morphine analgesia; 10'): 69.9 ± 16%
percentage variation of latency of pain sensation (morphine analgesia; 20'): 100.0 ± 0%
percentage variation of latency of pain sensation (morphine analgesia; 30'): 95.2 ± 4.8%
percentage variation of latency of pain sensation (morphine analgesia; 45'): 91.8 ± 8%
percentage variation of latency of pain sensation (morphine analgesia; 60'): 100%
percentage variation of latency of pain sensation (morphine analgesia; 90'): 100.0 ± 0%
M (10-90) ± SE, mean percentage variation of latency (morphine analgesia): 92.8 ± 12%
Power ratio with respect to morphine alone (morphine analgesia): 3.11
ED50 (concentration antagonising 50% of contracting effect of CCK-8) [1]: 33.5 µg/mL
ED50 [2]: 77.7 mg/kg
food consumption ([4]; 3 mg/kg os, week 1): 193.7 ± 3.58 g/week
food consumption ([4]; 3 mg/kg os, week 2): 233.2 ± 4.56 g/week
food consumption ([4]; 3 mg/kg os, week 3): 187.1 ± 8.40 g/week
food consumption ([4]; 3 mg/kg os, week 4): 204.0 ± 3.63 g/week
food consumption ([4]; 10 mg/kg os, week 1): 219.8 ± 5.62 g/week
food consumption ([4]; 10 mg/kg os, week 2): 264.3 ± 5.61 g/week
food consumption ([4]; 10 mg/kg os, week 3): 234.5 ± 5.05 g/week
food consumption ([4]; 10 mg/kg os, week 4): 234.6 ± 3.99 g/week
food consumption ([4]; 30 mg/kg os, week 1): 233.7 ± 5.45 g/week
food consumption ([4]; 30 mg/kg os, week 2): 267.9 ± 4.92 g/week
food consumption ([4]; 30 mg/kg os, week 3): 247.0 ± 5.19 g/week
food consumption ([4]; 30 mg/kg os, week 4): 244.5 ± 4.06 g/week
